In PMC4791274, “Cerdulatinib, a novel dual SYK/JAK kinase inhibitor, has broad anti-tumor activity in both ABC and GCB types of diffuse large B cell lymphoma” (Oncotarget, 2015):
pIC50: −log10 of the molar value.

Key:
HBL1 ABC DLBCL cell line = test: MTT assay (cellular metabolic activity), 72 h; format: cell-based; conditions: HBL1, 72 h
Protocol: (§1) DLBCL cell lines were treated with various concentrations of cerdulatinib for up to 72 h. The metabolic activities of cells were determined with MTT assay according to manufacturer's instruction (Roche Applied Science, Indianapolis, IN) at 72 h time point. IC50 was calculated using the Sigma Plot generated with GraphPad Prism 6 software (GraphPad, La Jolla, CA). Cell growth was measured at every 24 h counting live cells with flow cytometry as previously described. Cells were collected every 24 h and cell viability was determined by the PE Annexin V Apoptosis Detection Kit I (BD Biosciences).

[1] = tested on: LY1 (OCI-LY1) GCB DLBCL cell line; test: MTT assay (cellular metabolic activity), 72 h; format: cell-based; conditions: Homo sapiens, OCI-Ly1, 72 h
Protocol: as §1

[2] = tested on: LY10 (OCI-LY10) ABC DLBCL cell line; test: MTT assay (cellular metabolic activity), 72 h; format: cell-based; conditions: LY10, 72 h
Protocol: as §1

[3] = tested on: LY18 (OCI-LY18) GCB DLBCL cell line; test: MTT assay (cellular metabolic activity), 72 h; format: cell-based; conditions: Homo sapiens, OCI-Ly18, 72 h
Protocol: as §1

[4] = tested on: LY3 (OCI-LY3) ABC DLBCL cell line; test: MTT assay (cellular metabolic activity), 72 h; format: cell-based; conditions: Homo sapiens, OCI-Ly3, 72 h
Protocol: as §1

[5] = tested on: LY4 (OCI-LY4) GCB DLBCL cell line; test: MTT assay (cellular metabolic activity), 72 h; format: cell-based; conditions: LY4, 72 h
Protocol: as §1

[6] = tested on: LY8 (OCI-LY8) GCB DLBCL cell line; test: MTT assay (cellular metabolic activity), 72 h; format: cell-based; conditions: OCI-Ly8, 72 h
Protocol: as §1

[7] = tested on: SUDHL2 ABC DLBCL cell line; test: MTT assay (cellular metabolic activity), 72 h; format: cell-based; conditions: Homo sapiens, SU-DHL-2; SUDHL2, 72 h
Protocol: as §1

[8] = tested on: SUDHL6 GCB DLBCL cell line; test: MTT assay (cellular metabolic activity), 72 h; format: cell-based; conditions: Homo sapiens, SU-DHL-6; SUDHL6, 72 h
Protocol: as §1

[9] = tested on: U2932 ABC DLBCL cell line; test: MTT assay (cellular metabolic activity), 72 h; format: cell-based; conditions: Homo sapiens, U2932, 72 h
Protocol: as §1

VAL GCB DLBCL cell line = test: MTT assay (cellular metabolic activity), 72 h; format: cell-based
Protocol: as §1

[10] = tested on: panel of DLBCL cell lines; test: MTT assay, whole panel; format: cell-based; conditions: all eleven DLBCL cell lines, 72 h
Protocol: as §1

DLBCL cell lines = test: annexin V / 7-AAD cell viability by flow cytometry; format: cell-based; conditions: all tested cell lines with the exception of LY18; up to 72 h; concentration- and time-dependent
Protocol: as §1

[11] = tested on: phosphorylation of STAT3 at Y705; test: immunoblotting of p-STAT3 in IL-6/IL-10 stimulated DLBCL cell lines; format: cell-based; conditions: 3 μM, IL-6 and IL-10 stimulated ABC and GCB cell lines
Protocol: (§2) Immunoblotting were performed as previously described. Antibodies including total STAT3, SYK, PLCγ2, AKT, ERK1/2, PARP, caspase 3, and phosphorylated STAT3 (S727), STAT3 (Y705), SYK (Y525/526), PLCγ2 (Y759), PLCγ2 (Y1217), AKT (S473), ERK1/2 (Y204) and RB (S807/811) were purchased from Cell Signaling (Danvers, MA). Cyclin E antibody was purchased from Santa Cruz Biotechnology (Dallas, TX), and β-actin antibody was purchased from Sigma-Aldrich (St Louis, MO). Antibodies used in phosphoflow assay, including phosphorylated STAT3 (S727), SYK (Y525/526), PLCγ2 (Y759), AKT (S473), and ERK1/2 (Y204) were purchased from BD Biosciences (San Jose, CA).

p-SYK = test: immunoblotting of p-SYK in BCR-stimulated DLBCL cell lines; format: cell-based; conditions: 3 μM, anti IgM/IgG stimulated, all five cell lines
Protocol: as §2

[12] = tested on: BCR-stimulated DLBCL cells; test: annexin V / 7-AAD viability under BCR stimulation; format: cell-based; conditions: 3 μM, 48 h, anti-IgM and anti-IgG stimulation, all cell lines tested
Protocol: as §1

[13] = tested on: BCR-stimulated DLBCL cells; test: BrdU S-phase analysis under BCR stimulation; format: cell-based; conditions: 3 μM, 48 h, anti-IgM and anti-IgG stimulation
Protocol: DLBCL cells were treated with various concentrations of cerdulatinib for 48 h. Cells were incubated with 10 μM BrdU (BD Biosciences, San Jose, CA) at 37°C for 2 h, and stained with PE conjugated anti-BrdU antibody (BD Biosciences) according to the supplier's manual. The percentage of cell cycle distribution was analyzed with FlowJo (Tree Star Inc. Ashland, OR).

TYK2 = conditions: biochemical assay; cited from earlier work
MST1 = conditions: biochemical assay; cited from earlier work
ARK5 = conditions: biochemical assay; cited from earlier work
FMS = conditions: biochemical assay; cited from earlier work
AMPK = conditions: biochemical assay; cited from earlier work
TBK1 = conditions: biochemical assay; cited from earlier work
MARK1 = conditions: biochemical assay; cited from earlier work
PAR1B-α = conditions: biochemical assay; cited from earlier work
MST2 = conditions: biochemical assay; cited from earlier work
GCK = conditions: biochemical assay; cited from earlier work
RSK2 = conditions: biochemical assay; cited from earlier work
RSK4 = conditions: biochemical assay; cited from earlier work
SYK = conditions: biochemical assay; cited from earlier work
FLT4 = conditions: biochemical assay; cited from earlier work
RET = conditions: biochemical assay; cited from earlier work
24 kinases = conditions: biochemical assays, Table 1; read-out: IC50's against 24 kinases; cited from earlier work
LYN = conditions: cited from earlier work
ZAP70 = conditions: cited from earlier work
[14] = tested on: primary CLL cells with the BTK C481S mutation; conditions: cited from earlier work

pIC50 [1]: 6.57 | pIC50 [2]: 6.54 | pIC50 [3]: 6.80 | pIC50 [4]: 5.78 | pIC50 [5]: 5.68 | pIC50 [6]: 7.30 | pIC50 [7]: 6.01 | pIC50 [8]: 7.00
Compound: CCS(=O)(=O)N1CCN(c2ccc(Nc3ncc(C(N)=O)c(NC4CC4)n3)cc2)CC1 [cerdulatinib]
pIC50 (HBL1 ABC DLBCL cell line): 6.27 | pIC50 [9]: 5.74 | pIC50 (VAL GCB DLBCL cell line): 6.89 | pIC50 [10]: ≥ 5.70 | cell viability (annexin V-/7-AAD-) (DLBCL cell lines): reduced | phosphorylation of STAT3 at Y705 [11]: completely blocked | p-SYK level (p-SYK): significant reduction | viability of stimulated DLBCL cells [12]: reduced | S-phase of BCR-stimulated tumor cells [13]: sensitive | IC50 (TYK2): 0.5 nM | IC50 (MST1): 4 nM | IC50 (ARK5): 4 nM | IC50 (FMS): 5 nM | IC50 (AMPK): 6 nM | IC50 (TBK1): 10 nM | IC50 (MARK1): 10 nM | IC50 (PAR1B-α): 13 nM | IC50 (MST2): 15 nM | IC50 (GCK): 18 nM | IC50 (RSK2): 20 nM | IC50 (RSK4): 28 nM | IC50 (SYK): 32 nM | IC50 (FLT4): 51 nM | IC50 (RET): 105 nM | pIC50 (24 kinases): > 6.70 | cellular activity against LYN (LYN): lacking cellular activity | cellular activity against ZAP70 (ZAP70): lacking cellular activity | proliferation of ibrutinib-resistant cells [14]: completely blocking
